Measurements reported in patent US20250255850A1, “PHARMACEUTICAL COMPOSITIONS FOR TREATING NEUROLOGICAL CONDITIONS” (YISSUM RESEARCH DEVELOPMENT COMPANY OF THE HEBREW …, priority 2021, published 2025).

Experiments:
[1] = system: 3-nitrotyrosine; experiment: Western blot of 3-nitrotyrosine in cortical tissue, SHANK3 mutant group (M1); format: in vivo, mouse; conditions: SHANK3 mutant mice treated with 7-NI (M1+7-NI) vs M1
Description: (§1) Behavioral testing started after 2 hours of treatment.
(§2) To further corroborate these findings, the expression of 3-nitrotyrosine in cortical tissue of the wild type (WT), compared with the SHANK3 mutant group (M1), and SHANK3 group treated with 7-NI (M1+7-NI), and in cortical tissue of the wild type (WT), compared with the CNTNAP2^(−/−) mutant group (M2), and the CNTNAP2^(−/−) mutant group treated with 7-NI (M2+7—NI) was tested, and the obtained data is presented in FIGS. 3C-D (for M1) and in FIGS. 3E-F (for M2).

[2] = system: 3-nitrotyrosine; experiment: Western blot of 3-nitrotyrosine in cortical tissue, CNTNAP2(-/-) mutant group (M2); format: in vivo, mouse; conditions: CNTNAP2(-/-) mutant mice treated with 7-NI (M2+7-NI) vs M2
Description: as §1, §2

[3] = system: SH-SY5Y cells; experiment: Clonogenic survival assay; format: cell-based, human; conditions: 7-NI 100 μM for 24 hours or siRNA-nNOS, 14 days
Description: Cells were seeded into 6-well plates at concentrations of 500/well or 1000/well in triplicates. After 24 hours, 7-NI was added (100 μM for 24 hours), or cells were transiently transfected with siRNA-nNOS, as described above, before changing to serum-containing medium. Cells were incubated for 14 days to form visible colonies. Colonies were stained with crystal violet, washed with PBS, air-dried, and imaged. The colonies were visualized using ImageJ software. Cell colonies of greater than 50 cells were identified and counted (Lopez-Rivera et al., 2014).

[4] = system: SH-SY5Y cells; experiment: Confocal immunofluorescence of synaptophysin and 3-nitrotyrosine; format: cell-based, human; conditions: pharmacological inhibition (7-NI) or knockdown of nNOS
Description: FIGS. 18A-C show immunofluorescence of synaptophysin and 3-nitrotyrosine in SH-SY5Y cells with inhibited nNOS activity. Cells (with or without treatment) were postfixed in 4% paraformaldehyde and then incubated with the primary rabbit monoclonal Syp (red), and either primary mouse monoclonal NeuN (green), or primary mouse monoclonal 3-Ntyr (green) antibodies, in another group of cells. Cells were incubated with their respective secondary antibodies, such as anti-mouse Alexa fluor488, or anti-rabbit Alexa fluor594, and then mounted with DAPI (Blue) in both groups of cells. The images were acquired using a confocal microscope. Groups of cells: SH-SY5Y, SH-SY5Y+7-NI, and SH-SY5Y+si-nNOS. Each group consisted of three independent sets of experiments and was run in triplicates. The initial cell seed number was ˜10^6/cm^2. FIG. 18A presents representative images of Syp and 3-Ntyr immunofluorescence. FIGS. 18B-C are bar graphs showing the relative fluorescent intensity of Syp (FIG. 18B) and N-Tyr (FIG. 18C) immunofluorescence in the 3 groups of cells. The data are presented as mean±SEM. One-way ANOVA followed by Fisher's LSD multiple comparison post hoc test was conducted. *P<0.05, **P<0.01, ***P<0.001. The scale bar is 100 μm. […]

[5] = system: SHANK3 mutant mice; experiment: Open field test, SHANK3 mutant mice; format: in vivo, mouse; conditions: 7-NI i.p. 20, 50 and 80 mg/kg
Description: Open field test: Mice were tested in an open field (45×45 cm) virtually divided into central and peripheral regions. Animal activity was recorded by video tracking (Noldus Ethovision). Each mouse was allowed to explore the apparatus for 5 minutes. The distance traveled, the number of rears and revolutions, the number of grooming bouts and cumulative grooming time, the number of head shaking or twitches, the number of entries in the center, and the time spent in the central and peripheral regions were recorded. Measures were recorded in 5-minute intervals.
A dose dependent study was conducted to determine the optimal dose that may produce the greatest effect on mice behavior. The SHANK3 mutant mice (n=5 for each group) were treated with the 7-NI (i.p) at doses of 0, 20, 50, and 80 mg/kg. This was followed by a set of behavioral tests to assess the proper dose of 7-NI that can reverse the autistic phenotypes observed in this model.
Initially, an open field test was performed to examine the general motor activity levels in mice that is measured by the distance travelled and velocity.
A 100 μL injection of the poly(sebacic acid-ricinoleic acid) (PSARA) gel formulation with 7NI was used to evaluate its effect in reversing ASD-like behaviors in SHANK3 mice. The motor activity, social interaction, anxiety and interest behaviors were examined using the behavior analyses as described herein.

[6] = system: SH-SY5Y cells; experiment: Nitrite (Griess) assay in SH-SY5Y cells; format: cell-based, human; conditions: 7-NI 100 μM 24 hours or 20 nM nNOS siRNA 24 hours
Description: Human NB SH-SY5Y cells were obtained from the American Type Culture Collection (ATCC) and maintained in Dulbecco's modified Eagle's medium (DMEM) and Ham's F-12 (1:1) supplemented with 10% fetal bovine serum, 2 mM L-glutamine, and 100 U/ml penicillin-G/100 […] streptomycin in a humidified atmosphere (37° C., 5% CO2). Cells were plated onto 25 cm^2 and 75 cm^2 plates at a density of 7.0×10^5 and 2.1×10^6 cells/cm^2 respectively for Western blotting (WB) and 1×10^5 for immunofluorescence. The SH-SY5Y cells were treated with 100 μM 7-nitroindazole (7-NI) for 24 hours (Fujibayashi et al., 2015). This concentration was confirmed in a dose-response experiment (FIG. 14A) using an MTT viability assay.
SH-SY5Y cells were plated in 6 well plates, as well as on 22 mm^2 coverslips at a density of 6.0×10^4 cells/cm^2 and transfected with 20 nM nNOS siRNA (NOSIHSS1072, Invitrogen) for 24 hours, with the use of Lipofectamine RNAi MAX (56530, Invitrogen) according to the manufacturer's protocol. Then cells were washed with phosphate-buffered saline (PBS) and harvested for WB and fixed for immunofluorescence (Fujibayashi et al., 2015).
Released NO was measured with Griess assay Kit (Sigma-Aldrich, Cat. No. 23479) using the manufacturer's instructions.

SMILES: O=[N+]([O-])c1cccc2cn[nH]c12 [7-NI, 7-nitroindazole]
- expression of 3-Ntyr in cortical tissue [1]: reduced the expression of 3-Ntyr
- expression of 3-Ntyr in cortical tissue [2]: reduced the expression of 3-Ntyr
- number of colonies (clonogenic survival) [3]: decrease in the number of colonies
- intensity of 3-Ntyr immunofluorescence [4]: significantly decreased the intensity
- intensity of Syp immunofluorescence [4]: significantly decreased the intensity
- motor activity (distance travelled and velocity, open field) [5]: no significant difference in the motor activity
- nitrite content (Griess assay) [6]: reduction of nitrite content
